Reference: PMC10012172, “Chimeric Peptidomimetic Antibiotic Efficiently Neutralizes Lipopolysaccharides (LPS) and Bacteria-Induced Activation of RAW Macrophages” (ACS Infectious Diseases, 2023)
Where a SMILES comes first, the peptide text is derived from it. Bridges are numbered along the chain shown (N, C = ends). [ ]: non-standard residue; d: D form. Tle = CC(C)(C)[C@H](N)C(=O)O; dDab = NCC[C@@H](N)C(=O)O; hSer = N[C@@H](CCO)C(=O)O; Orn = NCCC[C@H](N)C(=O)O; Dab = NCC[C@H](N)C(=O)O

Tests used:
[1] = tested on: RAW264.7 macrophages stimulated with treated P. aeruginosa; test: Silent killing: stimulation of macrophages with nonviable bacteria (TNF-α ELISA); format: cell-based; conditions: RAW264.7 2 h; for macrophage activation (TNF-α) by peptide-treated P. aeruginosa compared to viable untreated bacteria: bacteria 1 × 10^6 CFU/mL treated with 20 μM peptide 1 h at 37 °C, three independent experiments
Procedure: Figure 7 (A) Determination of macrophage activation in response to viable and nonviable bacteria. P. aeruginosa was treated with gentamicin, heat treatment, CATH-2 (control), CPA, murepavadin, MHM, PMB, or PMBN (20 μM of each) and subsequently added to RAW264.7 macrophages. Production of TNF-α was measured using ELISA after 2 h of treatment. (B) Viability of P. aeruginosa after treatment was checked by plating on TSA plates. Data is plotted as the mean ± SEM of three independent experiments. Significant differences were determined by ordinary one-way ANOVA (Tukey’s multiple comparison test).
RAW264.7 cells were seeded (7.5 × 10^4 cells/well) as described above. P. aeruginosa (diluted to 1 × 10^6 CFU/mL in DMEM) was treated separately with heat (1 h at 90 °C), 1 mg/mL gentamicin (1 h at 37 °C), 20 μM CPA (1 h at 37 °C), 20 μM PMB (1 h at 37 °C), 20 μM murepavadin (1 h at 37 °C), 20 μM MHM (1 h at 37 °C), 20 μM CATH-2 (1 h at 37 °C), and DMEM only (untreated sample) (1 h at 4 °C). After treatment, the bacteria were added to the RAW264.7 cells for 2 h of incubation at 37 °C. After that, TNF-α production was determined in the supernatant by ELISA.

[2] = tested on: E. coli O111:B4 LPS stimulated RAW264.7 macrophages; test: IL-10 release ELISA in LPS stimulated macrophages; format: cell-based; conditions: 20 ng/mL E. coli O111:B4 LPS, 24 h; for concentration inhibiting IL-10 release: unable to inhibit up to highest concentration
Procedure: (§1) Figure 4 Peptides modulation of cytokine expression in RAW264.7 cells stimulated with LPS. RAW macrophages were stimulated with 20 ng/mL E. coli LPS in the presence of different concentrations of peptide antibiotics. (A) TNF-α and (B) IL-10 release was measured by ELISA in duplicates. Shown are the mean ± SEM of three independent experiments.
(§2) RAW264.7 cells were seeded (5 × 10^4 cells/well) in a 96-well plate and left at 37 °C for overnight adherence. Then, cells were stimulated with […] types of LPS: 20 ng/mL LPS originating from E. coli O111:B4 (LPS-EB, InvivoGen), 50 ng/mL LPS from P. aeruginosa (PA-10 LPS, Sigma -Aldrich), and 5 ng/mL LPS from E. coli K-12 (LPS-EK, InvivoGen) in the presence of 0–5 μM peptides in DMEM for 24 h. After incubation, the nitrite content (corresponding to nitric oxide produced but quickly oxidized in watery solutions to nitrite) in the supernatant was measured using the Griess assay.[28]
(§3) A sandwich ELISA was used to measure TNF-α and IL-10 concentrations in the supernatant of the same treatment (24 h) used for nitrite measurement, using ELISA Duoset kits (R&D systems, Minneapolis, MN) according to the manufacturer’s protocol.

E. coli O111:B4 LPS = test: Isothermal titration calorimetry (ITC) of LPS binding; conditions: 30 μM peptide, 200 μM LPS in 50% PBS, 37 °C, representative of two measurements
Procedure: Figure 6 (A) Binding profile of LPS and the peptides using ITC. Binding signatures (ΔG, ΔH. and −TΔS) plotted for binding events of LPS with peptides. (B) Spectra of the interaction between LPS and peptides. Murepavadin, PMB, MHM, PMBN, and CPA (30 μM) were titrated against 200 μM E. coli O111:B4 LPS, and heat rates were recorded. Shown is a representative of two measurements.
ITC measurements were performed in a low volume NanoITC (TA Instruments-Waters LLC, New Castle, DE). Two hundred micromolar LPS (from E. coli O111:B4) was prepared in 50% PBS. Peptides of 30 μM concentration were prepared in identical buffer. Three hundred microliters of the peptide solution was added to the chamber (chamber volume is 169 μL, so the rest of the volume flows out and rests around the chamber), and 50 μL of LPS was added to the syringe. At 37 °C, 2 μL of LPS solution was injected into the chamber every 300 s, except the first injection, which consists of 0.96 μL. The experiments were performed at 37 °C while stirring at 300 rpm. The data was analyzed with the NanoAnalyze Software (TA Instruments, Asse, Belgium).

[3] = tested on: E. coli O111:B4 LPS stimulated RAW264.7 macrophages; test: TNF-α release ELISA in LPS stimulated macrophages; format: cell-based; conditions: 20 ng/mL E. coli O111:B4 LPS, 24 h; for concentration inhibiting TNF-α release: unable to inhibit up to highest concentration
Procedure: as §1, §2, §3

[4] = tested on: Pseudomonas aeruginosa (clinical isolate); format: cell-based; conditions: 3 h
Procedure: (§4) Figure 2 Determination of MBC values for (A) E. coli and (B) P. aeruginosa. Surviving bacterial colonies were detected after incubation with tested peptides for 3 h in MHB.
(§5) Bacterial strains used in this study were clinical isolates of Escherichia coli and Pseudomonas aeruginosa provided by Utrecht University Medical Center, Department of Medical Microbiology, Utrecht, The Netherlands. Both strains were cultured in Mueller Hinton broth (MHB) (Millipore, Sigma-Aldrich).
(§6) Logarithmic growth phase of an o/n bacterial culture was obtained by diluting it 1:100 in MHB and then incubating it for 3 h at 37 °C while shaking. After that, the OD620 of the bacterial suspension was measured and the bacterial solution was diluted to 2 × 10^6 colony forming units/mL (CFU/mL). Bacteria and peptides in MHB were mixed 1:1 (v/v) and incubated for 3 h at 37 °C in a polypropylene round-bottom 96 well-plate (Corning Costar, Glendale, AZ). Subsequently, 10-fold dilutions were made and plated out on Tryptone Soy Agar (TSA) plates and incubated for 24 h at 37 °C to count colonies.

[5] = tested on: Escherichia coli (clinical isolate); format: cell-based; conditions: clinical isolate, 3 h
Procedure: as §4, §5, §6

[6] = tested on: E. coli O111:B4 LPS stimulated RAW264.7 macrophages; test: Nitric oxide inhibition assay (Griess), E. coli O111:B4 LPS; format: cell-based; conditions: smooth E. coli O111:B4 LPS 20 ng/mL; 0–5 μM peptide; 24 h
Procedure: (§7) Figure 3 Nitric oxide inhibition in LPS stimulated RAW264.7 by peptide antibiotics. RAW264.7 cells were stimulated with smooth type LPSs (A) E. coli O111:B4 LPS and (B) P. aeruginosa LPS and rough type LPS (C) E. coli K-12 LPS in the presence of different concentrations of peptides: CPA, murepavadin, MHM, PMB, and PMBN. NO production was measured by Griess assay. Shown are the mean ± SEM of three independent experiments. (D) Schematic diagram of the general structure of lipopolysaccharides. It consists of three main subunits: lipid A, the core region, and the O-antigen. Lipid A and the core-region form rough (R)-type LPS. Lipid A, the core-region, and the O-antigen together form smooth (S)-type LPS.
as §2

[7] = tested on: P. aeruginosa 10 LPS stimulated RAW264.7 macrophages; test: Nitric oxide inhibition assay (Griess), P. aeruginosa 10 LPS; format: cell-based; conditions: smooth P. aeruginosa 10 LPS 50 ng/mL; 0–5 μM peptide; 24 h
Procedure: as §7, §2

[8] = tested on: E. coli K-12 LPS stimulated RAW264.7 macrophages; test: Nitric oxide inhibition assay (Griess), E. coli K-12 LPS; format: cell-based; conditions: rough E. coli K-12 LPS 5 ng/mL; 0–5 μM peptide; 24 h
Procedure: as §7, §2

Molecule | macrophage activation (TNF-α) by peptide-treated P. aeruginosa compared to viable untreated bacteria [1] | macrophage activation (TNF-α) by gentamicin-killed P. aeruginosa compared to viable untreated bacteria ([1]; bacteria treated with 1 mg/mL gentamicin 1 h at 37 °C) | concentration inhibiting IL-10 release [2] [µM] | Kd (E. coli O111:B4 LPS) [nM] | concentration inhibiting TNF-α release [3] [µM] | MBC (complete killing) against P. aeruginosa [4] [µM] | MBC (complete killing) against E. coli [5] [µM] | inhibition of IL-10 release (in words) [2] | inhibition of LPS-induced nitric oxide production (in words) [6] | inhibition of LPS-induced nitric oxide production (in words) [7] | inhibition of LPS-induced nitric oxide production (in words) [8] | inhibition of TNF-α release (in words) [3]
chicken cathelicidin 2 (LVQRGRFGRFLRKIRRFRPKVTITIQGSARFG; Cathelicidin-2; UniProt Q2IAL7 123-154, looked up) [CATH-2, chicken cathelicidin 2, control peptide for which silent killing was originally described] | significantly reduced immune response | – | – | – | – | – | – | – | – | – | – | –
CNC(C)C1CCC(N)C(OC2C(N)CC(N)C(OC3OCC(C)(O)C(NC)C3O)C2O)O1 (centres unmarked) [Gentamicin] | – | almost same level as viable untreated bacteria | – | – | – | – | – | – | – | – | – | –
CC(C)[C@@H]1NC(=O)[C@@H]2CCCN2C(=O)[C@@H](C)NC(=O)[C@H](CO)NC(=O)[C@H](C)NC(=O)[C@H](C(C)(C)C)NC(=O)[C@H](CCO)NC(=O)[C@H](Cc2c[nH]c3ccccc23)NC(=O)[C@H](CCO)NC(=O)[C@@H](CCN)NC(=O)[C@H](CCC(=O)O)NC(=O)[C@H](CCN)NC(=O)[C@H](Cc2ccc(O)cc2)NC(=O)[C@H]([C@@H](C)O)NC1=O [MHM] (cyclo(VTY[Dab]E[dDab][hSer]W[hSer][Tle]AS[dA]P)) | no significant reduction in macrophage activation | – | > 5 | 970 | > 5 | > 20 | > 20 | – | – | – | – | –
CC[C@H](C)[C@@H]1NC(=O)[C@H](Cc2c[nH]c3ccccc23)NC(=O)[C@H]([C@@H](C)O)NC(=O)[C@@H]2CCCN2C(=O)[C@H]2CCCN2C(=O)[C@H](CO)NC(=O)[C@H](C)NC(=O)[C@H](CCN)NC(=O)[C@H](CCN)NC(=O)[C@H](Cc2c[nH]c3ccccc23)NC(=O)[C@H](CCN)NC(=O)[C@@H](CCN)NC(=O)[C@H](CCCN)NC(=O)[C@H](CCN)NC1=O [murepavadin] (cyclo(TWI[Dab][Orn][dDab][Dab]W[Dab][Dab]AS[dP]P)) | no significant reduction in macrophage activation | – | > 5 | 2020 | > 5 | 5 to 10 | > 20 | – | – | – | – | –
CC(C)C[C@@H]1NC(=O)[C@@H](Cc2ccccc2)NC(=O)[C@H](CCN)NC(=O)[C@@H](NC(=O)[C@H](CCN)NC(=O)[C@@H](N)[C@@H](C)O)CCNC(=O)[C@H]([C@@H](C)O)NC(=O)[C@H](CCN)NC(=O)[C@H](CCN)NC1=O [PMBN, polymyxin B nonapeptide] (H-T[Dab][Dab][Dab][dF]L[Dab][Dab]T; lactam 3-C (inferred); N-terminus assumed) | – | – | – | 3800 | – | > 20 | > 20 | inhibit IL-10 release dose-dependently but at concentrations much higher than those required for CPA or PMB | partially inhibited nitric oxide production only at 5 μM | partially inhibited nitric oxide production only at 5 μM | – | –
polymyxin B [PMB] | – | – | – | 2500 | – | – | – | slightly less activity compared to CPA | dose-dependently active | dose-dependently active | dose-dependently active | slightly less activity compared to CPA
